Reference: patent publication US12123010B2, “Plants having increased tolerance to herbicides” (BASF SE, priority 2017, dated 2024)
Values joined by “and” are separate entries in the source; they are usually repeats but may differ in a detail not shown here. Equal values may be shown once.

Tests used:
[1] = tested on: Variant PPO Enzyme L397Q, F420M (Amaranthus PPO2); assay type: biochemical; details: variant L397Q, F420M vs wild type
[2] = tested on: Variant PPO Enzyme F420M (Amaranthus PPO2); test: biochemical; assay type: biochemical; details: variant F420M vs wild type
[3] = tested on: Transgenic T2 Arabidopsis plants harboring PPO inhibitor tolerance trait; test: Lab based germination assay in 48-well plates (Table i); assay type: in vivo, Arabidopsis thaliana; details: in comparison to wild type plants
[4] = tested on: Variant PPO Enzyme F420V (Amaranthus PPO2); assay type: biochemical; details: variant F420V vs wild type
[5] = tested on: Transgenic T2 Arabidopsis plants and ARBTH WT MC24 non-transgenic; test: Greenhouse post spray test, injury 14 DAT (Tables ii, iii); assay type: in vivo, Arabidopsis thaliana;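 note: value is percent injury to the sprayed plants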
[6] = tested on: Transgenic T2 or T3 Soybean plants harbouring PPO inhibitor tolerance trait and Jake non transgenic; test: Soybean greenhouse post spray, injury score 7 DAT; details: in vivo
Method: Soybean cv Jake is transformed as previously described by Siminszky et al., Phytochem Rev. 5:445-458 (2006). After regeneration, transformants are transplanted to soil in small pots, placed in growth chambers (16 hr day/8 hr night; 25° C. day/23° C. night; 65% relative humidity; 130-150 microE m-2 s-1) and subsequently tested for the presence of the T-DNA via Taqman analysis. After a few weeks, healthy, transgenic positive, single copy events are transplanted to larger pots and allowed to grow in the growth chamber. An optimal shoot for cutting is about 3-4 inches tall, with at least two nodes present. Each cutting is taken from the original transformant (mother plant) and dipped into rooting hormone powder (indole-3-butyric acid, IBA). The cutting is then placed in oasis wedges inside a bio-dome. The mother plant is taken to maturity in the greenhouse and harvested for seed. Wild type cuttings are also taken simultaneously to serve as negative controls. The cuttings are kept in the bio-dome for 5-7 days and then transplanted to 3 inch pots and then acclimated in the growth chamber for two more days. Subsequently, the cuttings are transferred to the greenhouse, acclimated for approximately 4 days prior to spray. […] Herbicide injury evaluations are taken at 2, 7, 14 and 21 days after treatment. […]

[7] = tested on: Variant PPO Enzyme R128A, F420V (Amaranthus PPO2); test: biochemical; assay type: biochemical; details: variant R128A, F420V vs wild type
[8] = tested on: Variant PPO Enzyme R128A, F420M (Amaranthus PPO2); assay type: biochemical; details: variant R128A, F420M vs wild type
[9] = tested on: Variant PPO Enzyme L397Q, F420V (Amaranthus PPO2); assay type: biochemical; details: variant L397Q, F420V vs wild type
[10] = tested on: Variant PPO Enzyme L397Q (Amaranthus PPO2); assay type: biochemical; details: variant L397Q vs wild type
[11] = target: Wild Type PPO Enzyme (Amaranthus PPO2, SEQ ID NO: 1) (Amaranthus tuberculatus, UniProt Q0NZW9); test: PPO enzyme assay (recombinant), wild type; assay type: biochemical
Wild Type PPO Enzyme (Amaranthus PPO2, SEQ ID NO: 1), sequence (Q0NZW9 1-534): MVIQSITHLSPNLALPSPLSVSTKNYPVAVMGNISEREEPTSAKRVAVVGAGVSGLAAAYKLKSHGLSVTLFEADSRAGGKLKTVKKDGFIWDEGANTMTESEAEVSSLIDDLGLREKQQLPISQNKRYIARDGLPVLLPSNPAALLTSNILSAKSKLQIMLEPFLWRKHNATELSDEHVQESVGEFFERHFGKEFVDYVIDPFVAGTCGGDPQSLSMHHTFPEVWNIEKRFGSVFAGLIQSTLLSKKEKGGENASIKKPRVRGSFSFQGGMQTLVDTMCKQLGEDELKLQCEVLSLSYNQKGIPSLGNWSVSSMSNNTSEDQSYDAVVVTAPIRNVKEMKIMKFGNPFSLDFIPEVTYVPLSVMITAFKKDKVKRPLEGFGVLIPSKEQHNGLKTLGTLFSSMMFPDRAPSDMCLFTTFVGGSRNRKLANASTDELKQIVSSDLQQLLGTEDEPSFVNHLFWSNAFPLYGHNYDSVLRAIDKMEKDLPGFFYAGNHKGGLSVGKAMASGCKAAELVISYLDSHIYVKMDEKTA

SMILES: CCOC(=O)COc1ncccc1Oc1cc(-n2c(=O)cc(C(F)(F)F)n(C)c2=O)c(F)cc1Cl [Uracilpyridine 1, ethyl 2-[[3-[2-chloro-4-fluoro-5-[3-methyl-2,6-dioxo-4-(trifluoromethyl)pyrimiclin-1-yl]phenoxy]-2-pyridyl]oxy]acetate]
- Tolerance Factor (R/S) [1]: 2418
- Tolerance Factor (R/S) [2]: 215 and 265
- Tolerance Factor ([3]; construct ARBTH_PPO1_S305L_Y426M (Arabidopsis thaliana)): 250
- Tolerance Factor ([3]; construct ARBTH_PPO1_WT (Arabidopsis thaliana)): 50
- Tolerance Factor (R/S) [4]: 374
- injury (%) ([5]; Table ii, ALOMY_PPO2_R137L_F438V event F, 50 g ai/ha): 20%
- injury (%) ([5]; Table ii, ALOMY_PPO2_R137L_F438V event F, 100 g ai/ha): 33%
- injury (%) ([5]; Table ii, ALOMY_PPO2_R137L_F438V event F, 200 g ai/ha): 65%
- injury (%) ([5]; Table ii, ALOMY_PPO2_R137L_F438V event G, 50 g ai/ha): 5%
- injury (%) ([5]; Table ii, ALOMY_PPO2_R137L_F438V event G, 100 g ai/ha): 75%
- injury (%) ([5]; Table ii, ALOMY_PPO2_R137L_F438V event G, 200 g ai/ha): 28%
- injury (%) ([5]; Table ii, ALOMY_PPO2_TP_AMATU_PPO2_R128M_F420I event R, 50 g ai/ha): 60%
- injury (%) ([5]; Table ii, ALOMY_PPO2_TP_AMATU_PPO2_R128M_F420I event R, 100 g ai/ha): 92%
- injury (%) ([5]; Table ii, ALOMY_PPO2_TP_AMATU_PPO2_R128M_F420I event R, 200 g ai/ha): 84%
- injury (%) ([5]; Table ii, AMATU_PPO2_R128A_F420M event Q, 50 g ai/ha): 55%
- injury (%) ([5]; Table ii, AMATU_PPO2_R128A_F420M event Q, 100 g ai/ha): 60%
- injury (%) ([5]; Table ii, AMATU_PPO2_R128A_F420M event Q, 200 g ai/ha): 75%
- injury (%) ([5]; Table ii, AMATU_PPO2_R128M_F420I event K, 50 g ai/ha): 60%
- injury (%) ([5]; Table ii, AMATU_PPO2_R128M_F420I event K, 100 g ai/ha): 73%
- injury (%) ([5]; Table ii, AMATU_PPO2_R128M_F420I event K, 200 g ai/ha): 75%
- injury (%) ([5]; Table ii, AMATU_PPO2_TP_hemG event R, 50 g ai/ha): 60%
- injury (%) ([5]; Table ii, AMATU_PPO2_TP_hemG event R, 100 g ai/ha): 63%
- injury (%) ([5]; Table ii, AMATU_PPO2_TP_hemG event R, 200 g ai/ha): 53%
- injury (%) ([5]; Table ii, ARBTH WT MC24 non-transgenic, 50 g ai/ha + 1% MSO): 100%
- injury (%) ([5]; Table ii, ARBTH WT MC24 non-transgenic, 100 g ai/ha + 1% MSO): 100%
- injury (%) ([5]; Table ii, ARBTH WT MC24 non-transgenic, 200 g ai/ha + 1% MSO): 100%
- injury (%) ([5]; Table iii, ALOMY_PPO2_R137L_F438M (unnamed lines), 50 g ai/ha): 0%
- injury (%) ([5]; Table iii, AMATU_PPO2_L397Q_F420V (unnamed lines), 50 g ai/ha): 40% and 75%
- injury (%) ([5]; Table iii, AMATU_PPO2_L397Q_F420V (unnamed lines), 100 g ai/ha): 85% and 65%
- injury (%) ([5]; Table iii, AMATU_PPO2_R128A_F420I (unnamed lines), 50 g ai/ha): 60% and 70% and 75%
- injury (%) ([5]; Table iii, AMATU_PPO2_R128A_F420I (unnamed lines), 100 g ai/ha): 95% and 65% and 80% and 60%
- injury (%) ([5]; Table iii, AMATU_PPO2_R128A_F420L (unnamed lines), 100 g ai/ha): 60% and 90% and 95% and 80%
- injury (%) ([5]; Table iii, AMATU_PPO2_R128A_F420V (unnamed lines), 50 g ai/ha): 95% and 90% and 55% and 65%
- injury (%) ([5]; Table iii, AMATU_PPO2_R128A_F420V (unnamed lines), 100 g ai/ha): 80% and 95% and 98%
- injury (%) ([5]; Table iii, ARBTH WT MC 24 (non-transgenic), 50 g ai/ha + 1% MSO): 100%
- injury (%) ([5]; Table iii, ARBTH WT MC 24 (non-transgenic), 100 g ai/ha + 1% MSO): 100%
- injury (0-9) [6]: 3 and 2 and 4 and 0 (No Injury)
- Tolerance Factor (R/S) [7]: 915 and 1579
- Tolerance Factor (R/S) [8]: 347
- Tolerance Factor (R/S) [9]: 12739
- Tolerance Factor (R/S) [10]: 13
- IC50 [11]: 0.177 nM
